The source made the active and inactive calls. How the calls were made is not given here.
Tested on: CCRIS mutagenicity, Ames/micronucleus/aberration tests
Assay: CCRIS mutagenicity studies
Details: Test System: AMES SALMONELLA TYPHIMURIUM
[1] = Strain/Indicator: TA98, Metabolic Activation: RAT, LIVER, S-9, AROCLOR 1254, Method: STANDARD PLATE
[2] = Strain/Indicator: TA100, Metabolic Activation: RAT, LIVER, S-9, AROCLOR 1254, Method: STANDARD PLATE

Measured: mutagenic call

CS(=O)(=O)c1ccc(O)c(N)c1
inactive: Strain/Indicator: TA97, Metabolic Activation: HAMSTER, LIVER, S-9, AROCLOR 1254 (10 OR 30%), Method: PREINCUBATION inactive; negative | Strain/Indicator: TA97, Metabolic Activation: NONE, Method: PREINCUBATION inactive; negative | Strain/Indicator: TA97, Metabolic Activation: RAT, LIVER, S-9, AROCLOR 1254 (10 OR 30%), Method: PREINCUBATION inactive; negative | Strain/Indicator: TA98, Metabolic Activation: HAMSTER, LIVER, S-9, AROCLOR 1254 (10 OR 30%), Method: PREINCUBATION inactive; negative | Strain/Indicator: TA98, Metabolic Activation: NONE, Method: PREINCUBATION inactive; negative | Strain/Indicator: TA98, Metabolic Activation: RAT, LIVER, S-9, AROCLOR 1254 (10 OR 30%), Method: PREINCUBATION inactive; negative | Strain/Indicator: TA100, Metabolic Activation: HAMSTER, LIVER, S-9, AROCLOR 1254 (10 OR 30%), Method: PREINCUBATION inactive; negative | Strain/Indicator: TA100, Metabolic Activation: NONE, Method: PREINCUBATION inactive; negative | Strain/Indicator: TA100, Metabolic Activation: RAT, LIVER, S-9, AROCLOR 1254 (10 OR 30%), Method: PREINCUBATION inactive; negative | Strain/Indicator: TA1535, Metabolic Activation: HAMSTER, LIVER, S-9, AROCLOR 1254 (10 OR 30%), Method: PREINCUBATION inactive; negative | Strain/Indicator: TA1535, Metabolic Activation: NONE, Method: PREINCUBATION inactive; negative | Strain/Indicator: TA1535, Metabolic Activation: RAT, LIVER, S-9, AROCLOR 1254 (10 OR 30%), Method: PREINCUBATION inactive; negative | Strain/Indicator: TA1537, Metabolic Activation: HAMSTER, LIVER, S-9, AROCLOR 1254 (10 OR 30%), Method: PREINCUBATION inactive; negative | Strain/Indicator: TA1537, Metabolic Activation: NONE, Method: PREINCUBATION inactive; negative | Strain/Indicator: TA1537, Metabolic Activation: RAT, LIVER, S-9, AROCLOR 1254 (10 OR 30%), Method: PREINCUBATION inactive; negative

O=Nc1ccc(NNc2ccccc2)cc1
active: [1] active; positive | [2] active; positive

O=C(O)/C=C(/CC(=O)O)C(=O)O
inactive: Strain/Indicator: TA98, Metabolic Activation: NONE, Method: STANDARD PLATE inactive; negative | [1] inactive; negative | Strain/Indicator: TA100, Metabolic Activation: NONE, Method: STANDARD PLATE inactive; negative | [2] inactive; negative | Strain/Indicator: TA1535, Metabolic Activation: NONE, Method: STANDARD PLATE inactive; negative | Strain/Indicator: TA1535, Metabolic Activation: RAT, LIVER, S-9, AROCLOR 1254, Method: STANDARD PLATE inactive; negative | Strain/Indicator: TA1537, Metabolic Activation: NONE, Method: STANDARD PLATE inactive; negative | Strain/Indicator: TA1537, Metabolic Activation: RAT, LIVER, S-9, AROCLOR 1254, Method: STANDARD PLATE inactive; negative

From PubChem BioAssay AID1259407 (Chemical Carcinogenesis Research Information System (CCRIS), 2018)
